The values below come from publication PMC10409285 (PLOS Pathogens, 2023).

pIC50: −log10 of the molar value. Values joined by “and” are separate entries in the source; they are usually repeats but may differ in a detail not shown here. Equal values may be shown once. Read-outs that look alike come from different tables or passages of the source. No end group written: not given here. A value given as a limit tells only on which side of the number the result lay.

For assay [1], the target named is T1, DR2b (DRB1*15:01) (Homo sapiens, UniProt P01903+P01911).
T1 construct: Soluble DRB1*15:01 and DRB5*01:01 with a covalently linked CLIP peptides; covalently linked CLIP peptide (3C-protease-cleavable linker) (cleaved yes); purchased NIH Tetramer Core Facility / Emory University (a gift of Drs. John Altman and Richard Willis, not bought)
Description: fluorescence polarization competition binding assay, DR2b. To be noted: mean of two independent experiments. For orientation: In fluorescence polarisation assays a small probe gives low polarisation when free and higher when bound to something large.

The target of assay [2] is DR2a (DRB5*01:01) (Homo sapiens, UniProt P01903+Q30154). Description: fluorescence polarization competition binding assay, DR2a.
For assay [3], the target named is DP4.1 (HLA-DPA1*01:03/DPB1*04:01) (Homo sapiens, UniProt P04440+P20036). In words: fluorescence polarization competition binding assay, DP4.1.
[4] abbreviates: fluorescence polarization competition, […], mean of two independent experiments, read-out: Mean IC50, DR2a (DRB5*01:01).
Where [5] appears, read: fluorescence polarization competition, soluble DP4.1-Clip 250 nM, 25 nM Alexa488 oxytocinase probe peptide, 500 nM HLA-DM, 24 h 37°C, mean of two independent experiments, read-out: Mean IC50, DPA*01:03/DPB1*04:01.

In the case of `CC(C)C[C@H](NC(=O)[C@H](C)NC(=O)[C@H](C)NC(=O)[C@@H](N)CC(C)C)C(=O)N[C@@H](CC(N)=O)C(=O)N[C@@H](C)C(=O)N[C@@H](Cc1ccccc1)C(=O)N[C@H](C(=O)N[C@@H](CO)C(=O)N[C@@H](CCC(N)=O)C(=O)N[C@H](C(=O)N[C@@H](CC(C)C)C(=O)N[C@@H](CC(N)=O)C(=O)N[C@@H](CCCCN)C(=O)N[C@@H](Cc1ccc(O)cc1)C(=O)O)C(C)C)C(C)C` [Peptide P11.NL63], the pIC50 was 6.25 in assay [1] and 5.68 in assay [2].
On the same counts, the results for `CC(C)C[C@H](NC(=O)[C@H](C)NC(=O)[C@H](C)NC(=O)[C@@H](N)CC(C)C)C(=O)N[C@@H](CC(N)=O)C(=O)N[C@H](C(=O)N[C@@H](Cc1ccccc1)C(=O)N[C@H](C(=O)N[C@@H](CO)C(=O)N[C@@H](Cc1c[nH]cn1)C(=O)N[C@H](C(=O)N[C@@H](CC(C)C)C(=O)N[C@H](C(=O)N[C@@H](CCCCN)C(=O)N[C@@H](Cc1ccc(O)cc1)C(=O)O)[C@@H](C)O)[C@@H](C)O)C(C)C)C(C)C` [Peptide P11.229E] are 6.68 and 5.68.
Turning to `CC[C@H](C)[C@H](NC(=O)[C@H](CC(C)C)NC(=O)[C@H](CCC(N)=O)NC(=O)[C@H](CCC(N)=O)NC(=O)[C@@H](NC(=O)[C@@H](NC(=O)[C@H](Cc1ccc(O)cc1)NC(=O)[C@@H](NC(=O)[C@H](CCC(N)=O)NC(=O)[C@H](CC(C)C)NC(=O)[C@H](CO)NC(=O)[C@H](CCC(N)=O)NC(=O)[C@@H](N)CC(C)C)[C@@H](C)O)C(C)C)[C@@H](C)O)C(=O)N[C@@H](CCCNC(=N)N)C(=O)N[C@@H](C)C(=O)O` [Peptide P11.CoV2], the values for the pIC50 in assay [1] and in assay [2] (setting [4]) were 6.35 and 5.66, respectively.
Consider LFYTQVYKNMAVYRS [Peptide P9], for which the pIC50 in assay [1] is 6.66; in assay [2] it was > 6.00 and 6.40.
`CC(C)[C@H](NC(=O)[C@H](CC(N)=O)NC(=O)CNC(=O)CNC(=O)[C@H](CO)NC(=O)[C@@H]1CCCN1)C(=O)N[C@H](C(=O)N1CCC[C@H]1C(=O)N[C@@H](Cc1ccc(O)cc1)C(=O)N[C@@H](Cc1ccc(O)cc1)C(=O)N[C@@H](CO)C(=O)N[C@@H](Cc1c[nH]c2ccccc12)C(=O)N[C@@H](Cc1ccccc1)C(=O)N[C@@H](CO)C(=O)NCC(=O)O)C(C)C` [Peptide P10]: the pIC50 in assay [1] is 6.59; in assay [2], 4.14.
In the case of EGQQIIFYEGVNFTP [Peptide P8], the pIC50 in assay [1] was 6.64; in assay [2], 5.25.
With `CC[C@H](C)[C@H](NC(=O)CNC(=O)[C@H](CC(N)=O)NC(=O)[C@@H](NC(=O)[C@H](Cc1ccccc1)NC(=O)[C@@H](N)CC(=O)O)[C@@H](C)CC)C(=O)N[C@@H](Cc1ccccc1)C(=O)N[C@@H](C)C(=O)N[C@@H](CCCCN)C(=O)N[C@H](C(=O)N[C@@H](CCCCN)C(=O)N[C@@H](CC(N)=O)C(=O)N[C@H](C(=O)N[C@@H](CCCCN)C(=O)N[C@H](C(=O)N[C@H](C(=O)N[C@@H](CCCCN)C(=O)O)[C@@H](C)CC)C(C)C)[C@@H](C)O)C(C)C` [Peptide P12], the pIC50 was 4.77 in assay [1]; > 6.00 and 6.85 in assay [2].
On to QGLPNNTASWFTALTQH [N#7 (CoV2)], for which the figures for the pIC50 in assay [1] and in assay [2] (setting [4]) were 3.30 and 3.69, respectively.
With `CC[C@H](C)[C@H](NC(=O)[C@@H](NC(=O)CNC(=O)[C@H](CC(N)=O)NC(=O)[C@H](CCC(=O)O)NC(=O)[C@H](CC(N)=O)NC(=O)[C@H](Cc1ccc(O)cc1)NC(=O)[C@H](CCCCN)NC(=O)[C@H](CC(C)C)NC(=O)[C@@H](N)CC(C)C)[C@@H](C)O)C(=O)N[C@H](C(=O)N[C@@H](CC(=O)O)C(=O)N[C@@H](C)C(=O)N[C@H](C(=O)N[C@@H](CC(=O)O)C(=O)N[C@@H](CS)C(=O)O)C(C)C)[C@@H](C)O` [S#56 (CoV2)], the pIC50 was 4.40 in assay [1] and 4.39 in assay [2] (setting [4]).
As to `CC[C@H](C)[C@H](NC(=O)[C@H](Cc1ccccc1)NC(=O)[C@H](Cc1ccc(O)cc1)NC(=O)[C@H](CC(C)C)NC(=O)CNC(=O)[C@H](Cc1ccc(O)cc1)NC(=O)[C@@H]1CCCN1C(=O)[C@H](C)N)C(=O)N[C@@H](Cc1c[nH]cn1)C(=O)N[C@@H](Cc1ccccc1)C(=O)N[C@@H](CO)C(=O)N[C@@H](Cc1ccc(O)cc1)C(=O)N[C@H](C(=O)N1CCC[C@H]1C(=O)N[C@H](C(=O)N[C@@H](CCCCN)C(=O)O)[C@@H](C)O)C(C)C` [Peptide P6], the pIC50 in assay [3] is 4.09.
On the same count and under the same terms, the figure for `CC(C)C[C@H](NC(=O)[C@H](CCCCN)NC(=O)[C@@H](NC(=O)[C@H](CCCCN)NC(=O)[C@H](CC(=O)O)NC(=O)[C@H](Cc1ccccc1)NC(=O)[C@H](CC(C)C)NC(=O)[C@H](CC(C)C)NC(=O)[C@H](CC(=O)O)NC(=O)[C@H](CCC(=O)O)NC(=O)[C@H](Cc1ccccc1)NC(=O)[C@H](Cc1ccccc1)NC(=O)[C@H](CO)NC(=O)[C@H](CCCNC(=N)N)NC(=O)[C@H](CO)NC(=O)[C@H](CO)NC(=O)[C@@H](N)CO)C(C)C)C(=O)O` [HKU1-151] is 5.59.
Take `CC[C@H](C)[C@H](N)C(=O)N[C@@H](Cc1c[nH]cn1)C(=O)N[C@@H](Cc1ccccc1)C(=O)N[C@@H](CO)C(=O)N[C@@H](Cc1ccc(O)cc1)C(=O)N[C@H](C(=O)N1CCC[C@H]1C(=O)N[C@H](C(=O)N[C@@H](CCCCN)C(=O)N[C@@H](Cc1ccc(O)cc1)C(=O)N[C@H](C(=O)N[C@H](C(=O)N[C@@H](C)C(=O)N[C@@H](CCCNC(=N)N)C(=O)N[C@H](C(=O)N[C@@H](CO)C(=O)N1CCC[C@H]1C(=O)NCC(=O)O)C(C)C)[C@@H](C)O)C(C)C)[C@@H](C)O)C(C)C` [Peptide P7]: the pIC50 in assay [3] was 5.03.
Turning to `CC(C)C[C@H](NC(=O)[C@H](Cc1ccccc1)NC(=O)[C@@H](NC(=O)[C@@H](NC(=O)CNC(=O)[C@H](Cc1c[nH]cn1)NC(=O)[C@@H]1CCCN1C(=O)[C@H](C)N)C(C)C)C(C)C)C(=O)N[C@@H](Cc1c[nH]cn1)C(=O)N[C@H](C(=O)N[C@H](C(=O)N[C@@H](Cc1ccc(O)cc1)C(=O)N[C@H](C(=O)N1CCC[C@H]1C(=O)N[C@@H](C)C(=O)N[C@@H](CCC(N)=O)C(=O)O)C(C)C)[C@@H](C)O)C(C)C` [S#212 (CoV2)], the pIC50 in assay [3] (setting [5]) was 3.60.
`CC[C@H](C)[C@H](NC(=O)CNC(=O)[C@H](CC(=O)O)NC(=O)[C@H](CCC(N)=O)NC(=O)[C@H](CC(N)=O)NC(=O)[C@H](Cc1ccccc1)NC(=O)[C@H](C)NC(=O)[C@H](CC(C)C)NC(=O)[C@H](CC(C)C)NC(=O)[C@H](Cc1ccc(O)cc1)NC(=O)[C@H](CCC(N)=O)NC(=O)[C@H](CCCNC(=N)N)NC(=O)[C@@H](N)CO)C(=O)N[C@H](C(=O)N[C@@H](Cc1ccccc1)C(=O)N[C@@H](CC(N)=O)C(=O)O)[C@@H](C)CC` [Peptide P13] gave a pIC50 in assay [2] of 4.36.
For YLAISNELLLTVPTK [Peptide P1], in assay [3], the pIC50 is > 6.00 and 6.39.
In assay [3], `CC(C)C[C@H](NC(=O)[C@H](CCC(=O)O)NC(=O)[C@H](CC(C)C)NC(=O)[C@H](CCCNC(=N)N)NC(=O)[C@H](CO)NC(=O)CNC(=O)[C@H](Cc1ccccc1)NC(=O)[C@H](Cc1ccccc1)NC(=O)[C@H](Cc1ccccc1)NC(=O)[C@H](C)NC(=O)CN)C(=O)N[C@@H](C)C(=O)N[C@@H](CCCCN)C(=O)N[C@H](C(=O)N[C@@H](CCC(N)=O)C(=O)N[C@@H](CC(N)=O)C(=O)O)C(C)C` [Peptide P2] had a pIC50 of 3.93.
As for `CC[C@H](C)[C@H](N)C(=O)N[C@H](C(=O)N[C@H](C(=O)NCC(=O)N[C@@H](Cc1ccc(O)cc1)C(=O)N[C@@H](CCCNC(=N)N)C(=O)N[C@@H](Cc1ccccc1)C(=O)N[C@H](C(=O)N[C@@H](CC(N)=O)C(=O)N[C@@H](Cc1ccccc1)C(=O)N[C@@H](CCC(=O)O)C(=O)N1CCC[C@H]1C(=O)N[C@@H](Cc1ccccc1)C(=O)N[C@H](C(=O)O)[C@@H](C)O)[C@@H](C)O)[C@@H](C)O)[C@@H](C)O` [Peptide P5], in assay [3], the pIC50 is > 6.00 and 6.52.
On to `CC(C)C[C@H](NC(=O)[C@@H](NC(=O)[C@@H]1CCCN1C(=O)[C@@H](N)CC(N)=O)C(C)C)C(=O)N1CCC[C@H]1C(=O)N[C@@H](Cc1ccccc1)C(=O)N[C@@H](CC(N)=O)C(=O)N[C@@H](CC(=O)O)C(=O)NCC(=O)N[C@H](C(=O)N[C@@H](Cc1ccc(O)cc1)C(=O)N[C@@H](Cc1ccccc1)C(=O)N[C@@H](C)C(=O)N[C@@H](CO)C(=O)N[C@H](C(=O)N[C@@H](CCC(=O)O)C(=O)O)[C@@H](C)O)C(C)C` [S#17 (CoV2)], for which the pIC50 in assay [3] (setting [5]) is 4.12.
Take `CC(C)C[C@H](NC(=O)[C@H](Cc1ccccc1)NC(=O)[C@@H](N)C(C)C)C(=O)N[C@@H](Cc1c[nH]cn1)C(=O)N[C@H](C(=O)N[C@H](C(=O)N[C@@H](Cc1ccc(O)cc1)C(=O)N[C@H](C(=O)N1CCC[C@H]1C(=O)N[C@@H](C)C(=O)N[C@@H](CCC(N)=O)C(=O)N[C@@H](CCC(=O)O)C(=O)N[C@@H](CCCCN)C(=O)N[C@@H](CC(N)=O)C(=O)N[C@@H](Cc1ccccc1)C(=O)N[C@H](C(=O)O)[C@@H](C)O)C(C)C)[C@@H](C)O)C(C)C` [S#213 (CoV2)]: the pIC50 in assay [3] (setting [5]) was 3.62.
Still for that read-out and setting: the figure for `CC[C@H](C)[C@H](NC(=O)[C@@H](NC(=O)[C@@H](N)CO)[C@@H](C)CC)C(=O)N[C@@H](C)C(=O)N[C@@H](Cc1ccc(O)cc1)C(=O)N[C@H](C(=O)N[C@@H](CCSC)C(=O)N[C@@H](CO)C(=O)N[C@@H](CC(C)C)C(=O)NCC(=O)N[C@@H](C)C(=O)N[C@@H](CCC(=O)O)C(=O)N[C@@H](CC(N)=O)C(=O)N[C@@H](CO)C(=O)N[C@H](C(=O)N[C@@H](C)C(=O)O)C(C)C)[C@@H](C)O` [S#139 (CoV2)] is 3.53; for PSASAFFGMSRIGMEVT [N#45 (CoV2)] it is 3.26.
